Source: patent US20250268859A1, “OXAFURAMINE, (1R)-N-ETHYL-1-[(2R)-OXOLAN-2-YL]-2-[…], HYDROCHLORIDE AND DERIVATIVES THEREOF FOR TREATING ALZHEIMER'S DISEASE (AD), […] […], […] WITH LEWY BODIES (DLB), MIXED […], FRON[…] DEGENERATION (FTLD), AND PARKINSON'S DISEASE (PD)” (NLS Pharmaceutics AG, priority 2021, published 2025)
Where a name gives a salt, the structure may show the parent alone.

Tests used:
Assay type in all cases: in vivo, C57BL/6J, male
[1] = tested on: memory (recognition of the familiar object) in mice; assay: Novel Object Recognition (NOR) test in mice; conditions: Donepezil 2 mg/kg i.p., 72 h post treatment, mean, N = 16
[2] = Body weight of the mice in the NOR study; conditions: Donepezil 2 mg/kg i.p. group; mean, N = 16
From the text: (§1) Statistical analyses: • Read-outs: DI, N-F, ST, CT, N, F • Unpaired Student's t test: Donep 2 group vs. Control group. • One-way ANOVA, Dunnett test: • NLS-12 groups vs. Control group. • NLS-12 groups vs. Donep 2 group. • Read-outs: DI and N-F, for all groups, paired Student's t test, difference vs. 0. • Body weight: one-way ANOVA.

[3] = tested on: memory (recognition of the familiar object) in mice; assay: Novel Object Recognition (NOR) test in mice; conditions: mean, N = 16
Experimental: The test was carried out in circular boxes (30 cm diameter, 40 cm high). The objects to be discriminated (L≈1≈h≈3-4 cm) differed in both color and shape and were referred as yellow duck and blue lego. They were fixed with a magnet to the floor of the boxes at 5 cm of the wall, 20 cm distant. Apparently, they have no natural significance for mice and they have never been associated with a reinforcement. In order to rule out the possibility of scent traces left on the objects and therefore the dependency of the recognition capacity of mice on the olfactory cue, the objects and the ground of the box were washed with an odorless disinfectant (Sanicid® diluted in water) and dried between each trial. A camcorder was fixed to the ceiling above the box to record the animals' activity. The experiment was analyzed blindly at a later time.
On the week before the test, animals were handled by the experimenter in charge of the experiment in order to be not stressed at the time of testing. For this purpose, the experimenter placed a small amount of litter, and then the mouse on its hand.
The NOR test was completed over five days (see FIG. 1): • Day 1: Habituation trial. Animals were individually placed for a 15-min free exploration session in empty open boxes. • Day 2. Treatment administration and sample trial. […] They were individually placed 30 min after in the apparatus for a 6-min session with two identical objects (Duck, 50% of animals or Lego, 50% of animals). • Day 3. Choice trial. The mice were individually placed for a 6-min session in the apparatus with two objects (Duck and Lego), one of the objects presented in sample trials (termed as familiar objects) and a novel object (Lego, 50% of animals or Duck, 50% of animals).
The sample and choice trials were recorded with the camera located above the apparatus. The time spent by mice in exploring the objects was measured during the sample trial and the choice trial. Exploration of an object was defined as follows: directing the nose to the object at a distance≤2 cm and/or touching it with the nose or forelimbs; turning around or biting the object, or sitting on the object were not considered as exploratory behavior.
• L=exploration time of the left object in the sample trial. • R=exploration time of the right object in the sample trial. • N=exploration time of the new object in the choice trial. • F=exploration time of the familiar object in the choice trial.
• Exploration indices: • ST=L+R=exploration time (left object+right object) in the sample trial. • CT=N+F=exploration time (new object+familiar object) in the choice trial. • Two memory indices: • N-F=difference of exploration time between the new object and the familiar object in the choice trial.
as §1

Which “CT Exploration time in the choice trial (s) = N + F” value [1] does the source give for `COc1cc2c(cc1OC)C(=O)C(CC1CCN(Cc3ccccc3)CC1)C2` (stereo not shown) [Donepezil, Donepezil hydrochloride, reference compound] here?
Its value is 21.7 s.

And the “CT Exploration time in the choice trial (s) = N + F” value ([1]; hydrochloride)?
The value was “did not significantly modify the exploration time during the choice trial”.

And the “BW Body weight” value [2]?
Its value is 23.2 g.

What about the “N − F Exploration time novel − familiar object” value ([3]; Donepezil 2 mg/kg i.p. 30 min before sample trial, choice trial) of the same molecule?
Its value is 4.3 s.

What about the “ST Exploration time in the sample trial” value ([3]; Donepezil 2 mg/kg i.p., 30 min post treatment) of the same molecule?
The value was 20.2 s.

What about the “ST Exploration time in the sample trial (s)” value ([3]; Donepezil 2 mg/kg i.p., 30 min post treatment, hydrochloride) of the same molecule?
The value was “decreased the exploration time during the sample trial”.

And the “N Exploration time of novel object” value ([3]; Donepezil 2 mg/kg i.p., choice trial)?
Its value is 13.1 s.
